Values of other authors in patent publication US11980627B2, “Triple pharmaceutical composition for proteinaceous infection” (priority 2019, dated 2024).

How the values were obtained:
[1] = test system: AD; conditions: in vivo
[2] = test system: soluble amyloid protein; conditions: intravenous
[3] = test system: AD patients; conditions: twelve months' treatment, alone or in combination
[4] = test system: patients with AD; conditions: human, in vivo

soluble amyloid protein, sequence (P05067 672-711 limits assumed): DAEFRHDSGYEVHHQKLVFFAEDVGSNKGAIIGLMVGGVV

CC(=O)Nc1ccc(O)cc1 [Acetaminophen]
effects on AD [1]: not found to have beneficial effects

CC(=O)Oc1ccccc1C(=O)O [aspirin]
effects on AD [1]: not found to have beneficial effects

Solanezumab: intravenous amyloid immunotherapy; humanized monoclonal antibody to soluble amyloid protein
outcome of amyloid immunotherapy in AD [2]: failure

CO[C@H]1/C=C/O[C@@]2(C)Oc3c(C)c(O)c4c(O)c(c(/C=N/N5CCN(C)CC5)c(O)c4c3C2=O)NC(=O)/C(C)=C\C=C\[C@H](C)[C@H](O)[C@@H](C)[C@@H](O)[C@@H](C)[C@H](OC(C)=O)[C@@H]1C [rifampin]
effects on cognition or function in AD [3]: no beneficial effects

COc1ccc2cc([C@H](C)C(=O)O)ccc2c1 [Naproxen]
cognitive function in patients with AD [4]: did not improve
